Assay results: ChEMBL document CHEMBL3714729, “Heterocyclic compounds for the inhibition of pask” (2012)

Columns and labels:
[1] = target: T1, PAS domain-containing serine/threonine-protein kinase (Homo sapiens, UniProt Q96RG2); assay: Inhibition of human recombinant PASK using Ulight-peptide substrate incubated for 2 hrs by TR-FRET assay
[2] = target: T1, PAS domain-containing serine/threonine-protein kinase; assay: Inhibition of N-terminal GST-tagged human recombinant PASK kinase domain (879 to 1323 residues) expressed in insect cells using MBP protein substrate incubated for 120 mins in presence of [33P]ATP by scintillation counting based radiochemical assay
[3] = target: Casein kinase II subunit alpha' (Homo sapiens, UniProt P19784); assay: Inhibition of GST-tagged full-length purified human CK2a2 using RRRDDDSDDD substrate incubated for 120 mins in presence of [33P]ATP by scintillation counting based biochemical assay
[4] = target: T1, PAS domain-containing serine/threonine-protein kinase; assay: Inhibition of purified full-length human PASK expressed in insect cells using MBP protein substrate incubated for 10 mins before ATP addition and measured after 1 hr by kinase-Glo luminescent kinase assay

Sequence of Casein kinase II subunit alpha' (P19784 whole entry, the tested form may be a part): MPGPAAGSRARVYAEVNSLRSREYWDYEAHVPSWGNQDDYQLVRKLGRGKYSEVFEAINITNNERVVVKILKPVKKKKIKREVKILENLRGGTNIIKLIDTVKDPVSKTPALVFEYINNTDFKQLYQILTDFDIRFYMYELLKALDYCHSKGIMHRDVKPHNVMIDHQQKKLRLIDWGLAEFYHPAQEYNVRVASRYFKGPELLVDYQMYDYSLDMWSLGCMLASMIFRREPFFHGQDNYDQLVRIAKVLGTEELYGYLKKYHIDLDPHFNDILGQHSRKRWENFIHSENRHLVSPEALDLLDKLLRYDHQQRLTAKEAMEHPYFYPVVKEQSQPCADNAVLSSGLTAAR
T1 sequence (Q96RG2 whole entry, the tested form may be a part): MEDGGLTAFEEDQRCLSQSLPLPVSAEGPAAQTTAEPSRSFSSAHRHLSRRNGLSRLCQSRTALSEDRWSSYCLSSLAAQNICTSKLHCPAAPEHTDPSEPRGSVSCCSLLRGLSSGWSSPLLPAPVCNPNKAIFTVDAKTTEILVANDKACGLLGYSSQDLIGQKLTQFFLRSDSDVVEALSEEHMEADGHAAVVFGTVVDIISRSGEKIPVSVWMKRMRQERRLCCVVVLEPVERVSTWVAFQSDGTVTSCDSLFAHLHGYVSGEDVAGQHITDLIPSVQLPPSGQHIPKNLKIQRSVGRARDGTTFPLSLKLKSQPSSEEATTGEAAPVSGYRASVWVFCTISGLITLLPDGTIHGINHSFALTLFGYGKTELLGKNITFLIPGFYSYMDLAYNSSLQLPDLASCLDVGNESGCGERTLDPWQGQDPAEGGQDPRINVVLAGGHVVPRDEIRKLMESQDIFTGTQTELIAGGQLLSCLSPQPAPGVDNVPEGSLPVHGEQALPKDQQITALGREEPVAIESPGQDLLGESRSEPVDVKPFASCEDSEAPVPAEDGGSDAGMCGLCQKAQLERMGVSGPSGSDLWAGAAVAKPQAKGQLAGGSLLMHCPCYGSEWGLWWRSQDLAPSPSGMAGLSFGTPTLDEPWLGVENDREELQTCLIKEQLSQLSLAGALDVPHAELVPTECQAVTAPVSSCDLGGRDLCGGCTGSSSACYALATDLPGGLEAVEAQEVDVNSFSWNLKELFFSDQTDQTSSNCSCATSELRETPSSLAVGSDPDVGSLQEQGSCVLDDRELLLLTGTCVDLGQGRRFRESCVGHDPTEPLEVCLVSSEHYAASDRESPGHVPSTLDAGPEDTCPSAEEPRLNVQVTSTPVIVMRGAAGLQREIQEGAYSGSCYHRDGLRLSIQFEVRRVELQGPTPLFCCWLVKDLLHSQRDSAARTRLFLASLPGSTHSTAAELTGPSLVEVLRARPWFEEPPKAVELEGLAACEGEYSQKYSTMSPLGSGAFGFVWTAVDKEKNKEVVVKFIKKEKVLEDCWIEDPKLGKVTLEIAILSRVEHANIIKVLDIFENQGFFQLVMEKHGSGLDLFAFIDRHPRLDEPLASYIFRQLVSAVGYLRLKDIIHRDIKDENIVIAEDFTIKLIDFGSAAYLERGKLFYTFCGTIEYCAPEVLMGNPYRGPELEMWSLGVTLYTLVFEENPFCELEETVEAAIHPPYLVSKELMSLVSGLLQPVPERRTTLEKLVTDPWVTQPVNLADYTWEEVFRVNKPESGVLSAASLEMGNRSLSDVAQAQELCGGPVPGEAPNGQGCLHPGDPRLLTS

Structure (SMILES) | IC50 [1] | IC50 [2] | IC50 [3] | IC50 [4]
O=c1cc(-c2ccc3[nH]nnc3c2)[nH]c2c(-c3cccnc3)cnn12 | ≤ 10 µM | ≤ 10 µM | ≤ 10 µM | 
O=c1cc(-c2ccc(Cl)cc2)[nH]c2c(-c3cccnc3)c(O)nn12 | ≤ 10 µM | ≤ 10 µM | ≥ 10 µM | 
O=c1cc(-c2ccc3c(c2)OCCO3)[nH]c2c(-c3ccc(N4CCCC4)nc3)cnn12 | ≤ 10 µM | ≤ 10 µM | ≤ 10 µM | 
O=c1cc(-c2ccc(Cl)c(Cl)c2)[nH]c2c(-c3ccccn3)cnn12 | ≤ 10 µM | ≤ 10 µM | ≤ 10 µM | 
CCCNC(=O)c1cnn2c(=O)cc(-c3ccc4[nH]nnc4c3)[nH]c12 | ≤ 10 µM | ≤ 10 µM | ≤ 10 µM | 
O=c1cc(-c2ccc3c(c2)OC(F)(F)O3)[nH]c2c(-c3ccccn3)cnn12 | ≤ 10 µM | ≤ 10 µM | ≤ 10 µM | 
Cc1nn2c(=O)cc(-c3ccc4c(c3)OCO4)[nH]c2c1Cc1ccccn1 | ≤ 10 µM | ≤ 10 µM | ≤ 10 µM | 
O=c1cc(-c2ccc(F)cc2)[nH]c2c(-c3ccccn3)cnn12 | ≤ 10 µM | ≤ 10 µM | ≤ 10 µM | 
O=c1cc(-c2ccc3occc3c2)[nH]c2c(-c3ccccc3)c(O)nn12 | ≤ 10 µM | ≤ 10 µM | ≤ 10 µM | 
O=c1cc(-c2ccc3[nH]nnc3c2)[nH]c2c(-c3ccc(Cl)cc3)cnn12 | ≤ 10 µM | ≤ 10 µM | ≤ 10 µM | 
CCc1nn2c(=O)cc(-c3ccc4c(c3)OCO4)[nH]c2c1-c1ccccn1 | ≤ 10 µM | ≤ 10 µM | ≤ 10 µM | 
Nc1nn2c(=O)cc(-c3ccc(Cl)cc3F)[nH]c2c1-c1ccccn1 | ≤ 10 µM | ≤ 10 µM | ≤ 10 µM | 
CCCNC(=O)c1c(N)nn2c(=O)cc(-c3ccc4[nH]nc(C)c4c3)[nH]c12 | ≤ 10 µM | ≤ 10 µM | ≤ 10 µM | 
O=c1cc(-c2ccc(-c3ncco3)cc2)[nH]c2c(-c3ccccn3)cnn12 | ≤ 10 µM | ≤ 10 µM | ≥ 10 µM | 
NC(=O)c1cnn2c(=O)cc(-c3ccc4c(c3)OCCO4)[nH]c12 | ≤ 10 µM | ≤ 10 µM | ≤ 10 µM | 
COc1ccc(-c2c(Cc3ccccc3)nn3c(=O)cc(-c4ccccc4)[nH]c23)cc1 |  |  |  | ≥ 10 µM
O=c1cc(-c2cc3nn[nH]c3cc2F)[nH]c2c(-c3ccccn3)cnn12 | ≤ 10 µM | ≤ 10 µM | ≤ 10 µM | 
O=c1cc(-c2ccc3c(c2)CCO3)[nH]c2c(-c3ccccc3)cnn12 | ≤ 10 µM | ≤ 10 µM | ≤ 10 µM | 
Nc1nn2c(=O)cc(-c3ccc(Cl)cc3)[nH]c2c1-c1ccccn1 | ≤ 10 µM | ≤ 10 µM | ≤ 10 µM | 
O=c1cc(-c2ccc3c(c2)CCO3)[nH]c2c(-c3cccnc3)cnn12 | ≤ 10 µM | ≤ 10 µM | ≤ 10 µM | 
CCCNC(=O)c1c(O)nn2c(=O)cc(-c3ccc4c(c3)OCO4)[nH]c12 | ≤ 10 µM | ≤ 10 µM | ≤ 10 µM | 
COc1c(-c2cc(=O)n3ncc(-c4ccccn4)c3[nH]2)ccc2[nH]nnc12 | ≤ 10 µM | ≤ 10 µM | ≤ 10 µM | 
Nc1nn2c(=O)cc(-c3ccc4c(c3)OCCO4)[nH]c2c1-c1ccccn1 | ≤ 10 µM | ≤ 10 µM | ≤ 10 µM | 

Structure (SMILES) | IC50 [1] | IC50 [2] | IC50 [3] | IC50 [4]
CCCNC(=O)c1cnn2c(=O)cc(-c3ccc4c(c3)OCCO4)[nH]c12 | ≤ 10 µM | ≤ 10 µM | ≤ 10 µM | 
Nc1nn2c(=O)cc(-c3ccc4[nH]nnc4c3)[nH]c2c1-c1ccc(Cl)cc1 | ≤ 10 µM | ≤ 10 µM | ≤ 10 µM | 
Nc1nn2c(=O)cc(-c3ccc(F)cc3)[nH]c2c1-c1ccccn1 | ≤ 10 µM | ≤ 10 µM | ≤ 10 µM | 
O=C(NCc1ccccc1)c1cnn2c(=O)cc(-c3ccc(Cl)cc3)[nH]c12 | ≤ 10 µM | ≤ 10 µM | ≤ 10 µM | 
CCCNC(=O)c1c(N)nn2c(=O)cc(-c3ccc4c(cnn4C)c3)[nH]c12 | ≤ 10 µM | ≤ 10 µM | ≤ 10 µM | 
COc1ccc(-c2cc(=O)n3ncc(-c4ccccn4)c3[nH]2)cc1OC | ≤ 10 µM | ≤ 10 µM | ≤ 10 µM | 
N#Cc1ccc(-c2cc(=O)n3ncc(-c4ccccn4)c3[nH]2)cc1 | ≤ 10 µM | ≤ 10 µM | ≥ 10 µM | 
Nc1nn2c(=O)cc(-c3ccc4[nH]nnc4c3)[nH]c2c1-c1ccccc1 | ≤ 10 µM | ≤ 10 µM | ≤ 10 µM | 
Cc1cc(=O)n2nc(-c3ccc(Cl)cc3)cc2[nH]1 |  |  |  | ≤ 10 µM
COc1c(-c2cc(=O)n3nc(C)c(-c4ccccn4)c3[nH]2)ccc2c1OCO2 | ≤ 10 µM | ≤ 10 µM | ≤ 10 µM | 
COc1ccccc1-c1cc(=O)n2ncc(-c3ccccn3)c2[nH]1 | ≤ 10 µM | ≤ 10 µM | ≤ 10 µM | 
O=c1cc(-c2ccc(F)cc2)[nH]c2c(-c3ccccn3)c(O)nn12 | ≤ 10 µM | ≤ 10 µM | ≥ 10 µM | 
CC(=O)Nc1nn2c(=O)cc(-c3ccc4c(c3)OCO4)[nH]c2c1-c1ccccn1 | ≤ 10 µM | ≤ 10 µM | ≤ 10 µM | 
O=c1cc(-c2ccc3c(c2)OCO3)[nH]c2c(-c3cccnc3)c(O)nn12 | ≤ 10 µM | ≤ 10 µM | ≤ 10 µM | 
CCNc1nn2c(=O)cc(-c3ccc4c(c3)OCO4)[nH]c2c1-c1ccccn1 | ≤ 10 µM | ≤ 10 µM | ≤ 10 µM | 
Nc1nn2c(=O)cc(-c3ccc4c(c3)OCO4)[nH]c2c1-c1ccccn1 | ≤ 10 µM | ≤ 10 µM | ≤ 10 µM | 
CCCNC(=O)c1c(N)nn2c(=O)cc(-c3ccc4[nH]ncc4c3)[nH]c12 | ≤ 10 µM | ≤ 10 µM | ≤ 10 µM | 
O=c1cc(-c2ccc3c(c2)CCO3)[nH]c2c(-c3cccnc3)c(O)nn12 | ≤ 10 µM | ≤ 10 µM | ≤ 10 µM | 
COc1cc2[nH]nnc2cc1-c1cc(=O)n2nc(N)c(-c3ccccn3)c2[nH]1 | ≤ 10 µM | ≤ 10 µM | ≥ 10 µM | 
Nc1nn2c(=O)cc(-c3ccc4[nH]ncc4c3)[nH]c2c1-c1ccccn1 | ≤ 10 µM | ≤ 10 µM | ≤ 10 µM | 
Nc1nn2c(=O)cc(-c3ccc4c(c3)OCCO4)[nH]c2c1-c1ccccc1 | ≤ 10 µM | ≤ 10 µM | ≤ 10 µM | 
CCCNC(=O)c1c(N)nn2c(=O)cc(-c3ccc(Cl)cc3)[nH]c12 | ≤ 10 µM | ≤ 10 µM | ≤ 10 µM | 
O=c1cc(-c2ccc3[nH]nnc3c2)[nH]c2c(-c3ccccn3)c(O)nn12 | ≤ 10 µM | ≤ 10 µM | ≤ 10 µM | 

Structure (SMILES) | IC50 [1] | IC50 [2] | IC50 [3] | IC50 [4]
O=c1cc(-c2ccc3c(c2)OCCO3)[nH]c2c(-c3ccccc3)c(C(F)(F)F)nn12 | ≤ 10 µM | ≤ 10 µM | ≤ 10 µM | 
COc1c(-c2cc(=O)n3nc(N)c(-c4ccccn4)c3[nH]2)ccc2c1OCO2 | ≤ 10 µM | ≤ 10 µM | ≤ 10 µM | 
CC(=O)Nc1nn2c(=O)cc(-c3ccc4c(cnn4C)c3)[nH]c2c1-c1ccccn1 | ≤ 10 µM | ≤ 10 µM | ≤ 10 µM | 
CCc1nn2c(=O)cc(-c3ccc4[nH]nnc4c3)[nH]c2c1-c1ccccn1 | ≤ 10 µM | ≤ 10 µM | ≤ 10 µM | 
O=c1cc(-c2ccc3occc3c2)[nH]c2c(-c3cccnc3)c(O)nn12 | ≤ 10 µM | ≤ 10 µM | ≤ 10 µM | 
O=c1cc(-c2ccc3c(c2)OCO3)[nH]c2c(Cc3ccccc3)cnn12 | ≤ 10 µM | ≤ 10 µM | ≤ 10 µM | 
O=c1cc(-c2ccc3[nH]ncc3c2)[nH]c2c(-c3ccccn3)cnn12 | ≤ 10 µM | ≤ 10 µM | ≤ 10 µM | 
O=c1cc(-c2ccc3occc3c2)[nH]c2c(-c3ccccc3)cnn12 | ≤ 10 µM | ≤ 10 µM | ≤ 10 µM | 
COc1c(-c2cc(=O)n3nc(O)c(-c4ccccn4)c3[nH]2)ccc2c1OCO2 | ≤ 10 µM | ≤ 10 µM | ≤ 10 µM | 
CCCNC(=O)c1c(N)nn2c(=O)cc(-c3ccc4[nH]nnc4c3)[nH]c12 | ≤ 10 µM | ≤ 10 µM | ≤ 10 µM | 
Cc1cc(=O)n2nc(-c3cccc(Br)c3)cc2[nH]1 |  |  |  | ≤ 10 µM
COc1ccc(-c2cc(=O)n3nc(O)c(-c4ccccn4)c3[nH]2)c(OC)c1 | ≤ 10 µM | ≤ 10 µM | ≥ 10 µM | 
O=c1cc(-c2ccc3c(c2)CCO3)[nH]c2c(-c3ccccn3)c(O)nn12 | ≤ 10 µM | ≤ 10 µM | ≥ 10 µM | 
O=c1cc(-c2ccc3c(c2)OCO3)[nH]c2c(-c3ncccc3F)cnn12 | ≤ 10 µM | ≤ 10 µM | ≤ 10 µM | 
O=c1cc(-c2ccc3occc3c2)[nH]c2c(-c3ccccn3)c(O)nn12 | ≤ 10 µM | ≤ 10 µM | ≤ 10 µM | 
N#Cc1cnn2c(=O)cc(-c3ccc4c(c3)OCCO4)[nH]c12 | ≤ 10 µM | ≤ 10 µM | ≤ 10 µM | 
COc1ccc2c(c1)CCc1c-2[nH]c2c(-c3ccccn3)cnn2c1=O | ≤ 10 µM | ≤ 10 µM | ≤ 10 µM | 
O=c1cc(-c2ccc(Cl)cc2)[nH]c2c(-c3ccccn3)c(O)nn12 | ≤ 10 µM | ≤ 10 µM | ≥ 10 µM | 
Nc1nn2c(=O)cc(-c3ccc4[nH]nnc4c3)[nH]c2c1-c1ccccn1 | ≤ 10 µM | ≤ 10 µM | ≤ 10 µM | 
CN(Cc1ccccc1)C(=O)c1cnn2c(=O)cc(-c3ccc4c(c3)OCCO4)[nH]c12 | ≤ 10 µM | ≤ 10 µM | ≤ 10 µM | 
Nc1nn2c(=O)cc(-c3ccc(Cl)cc3)[nH]c2c1-c1ccccc1 | ≤ 10 µM | ≤ 10 µM | ≤ 10 µM | 
COc1ccc(-c2c(C)nn3c(=O)cc(-c4ccccc4)[nH]c23)cc1 |  |  |  | ≥ 10 µM
